Test results as given in ChEMBL document CHEMBL5291721, “A preclinical secondary pharmacology resource illuminates target-adverse drug reaction associations of marketed drugs” (Nat Commun, 2023).

Assays:
[1] = molecular target: T1, Gamma-aminobutyric acid receptor subunit alpha-1 (Rattus norvegicus, UniProt P62813)
[2] = molecular target: Sodium-dependent dopamine transporter (Homo sapiens, UniProt Q01959)
[3] = molecular target: T2, Alpha-1A adrenergic receptor (Homo sapiens, UniProt P35348); type: functional, cell-based
T2 sequence (P35348 whole entry): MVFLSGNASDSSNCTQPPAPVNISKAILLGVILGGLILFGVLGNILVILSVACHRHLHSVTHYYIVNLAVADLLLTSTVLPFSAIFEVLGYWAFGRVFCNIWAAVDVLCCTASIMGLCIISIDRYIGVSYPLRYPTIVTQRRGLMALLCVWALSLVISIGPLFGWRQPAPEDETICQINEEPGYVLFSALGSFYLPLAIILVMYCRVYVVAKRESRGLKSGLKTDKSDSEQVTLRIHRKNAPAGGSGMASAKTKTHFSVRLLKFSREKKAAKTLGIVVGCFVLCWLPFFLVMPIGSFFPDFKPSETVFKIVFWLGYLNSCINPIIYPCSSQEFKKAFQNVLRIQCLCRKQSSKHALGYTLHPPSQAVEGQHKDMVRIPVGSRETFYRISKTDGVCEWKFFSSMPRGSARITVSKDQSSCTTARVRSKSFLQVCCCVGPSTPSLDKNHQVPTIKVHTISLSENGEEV

[4] = molecular target: T1, Gamma-aminobutyric acid receptor subunit alpha-1; type: functional
[5] = molecular target: T3, 5-hydroxytryptamine receptor 1A (Homo sapiens, UniProt P08908); type: functional, cell-based
T3 sequence (P08908 whole entry): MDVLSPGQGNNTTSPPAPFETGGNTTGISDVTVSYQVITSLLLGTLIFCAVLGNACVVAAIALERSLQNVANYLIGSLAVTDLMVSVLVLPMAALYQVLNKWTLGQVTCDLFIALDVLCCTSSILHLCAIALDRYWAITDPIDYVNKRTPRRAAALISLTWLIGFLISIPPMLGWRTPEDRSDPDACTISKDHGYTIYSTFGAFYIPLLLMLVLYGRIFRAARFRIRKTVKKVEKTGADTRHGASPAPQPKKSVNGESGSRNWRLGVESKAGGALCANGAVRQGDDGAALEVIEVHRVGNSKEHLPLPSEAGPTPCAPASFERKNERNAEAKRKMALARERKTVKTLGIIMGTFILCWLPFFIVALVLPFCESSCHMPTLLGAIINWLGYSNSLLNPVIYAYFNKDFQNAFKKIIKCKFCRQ

[6] = molecular target: T4, Alpha-2A adrenergic receptor (Homo sapiens, UniProt P08913); type: functional, cell-based
T4 sequence (P08913 whole entry): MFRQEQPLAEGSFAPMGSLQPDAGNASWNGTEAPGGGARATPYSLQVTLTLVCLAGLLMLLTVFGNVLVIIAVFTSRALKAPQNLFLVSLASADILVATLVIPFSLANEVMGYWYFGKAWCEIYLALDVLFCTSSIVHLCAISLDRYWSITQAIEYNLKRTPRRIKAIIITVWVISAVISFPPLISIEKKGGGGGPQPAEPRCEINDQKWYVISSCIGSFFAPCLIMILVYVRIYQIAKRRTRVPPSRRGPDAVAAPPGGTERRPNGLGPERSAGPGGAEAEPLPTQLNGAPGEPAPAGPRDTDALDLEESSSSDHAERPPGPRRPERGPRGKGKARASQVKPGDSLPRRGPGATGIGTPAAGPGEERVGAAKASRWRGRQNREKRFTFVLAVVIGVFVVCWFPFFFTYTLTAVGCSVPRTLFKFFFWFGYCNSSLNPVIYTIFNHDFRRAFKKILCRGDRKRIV

[7] = molecular target: T5, Muscarinic acetylcholine receptor M2 (Homo sapiens, UniProt P08172); type: functional, cell-based
T5 sequence (P08172 whole entry): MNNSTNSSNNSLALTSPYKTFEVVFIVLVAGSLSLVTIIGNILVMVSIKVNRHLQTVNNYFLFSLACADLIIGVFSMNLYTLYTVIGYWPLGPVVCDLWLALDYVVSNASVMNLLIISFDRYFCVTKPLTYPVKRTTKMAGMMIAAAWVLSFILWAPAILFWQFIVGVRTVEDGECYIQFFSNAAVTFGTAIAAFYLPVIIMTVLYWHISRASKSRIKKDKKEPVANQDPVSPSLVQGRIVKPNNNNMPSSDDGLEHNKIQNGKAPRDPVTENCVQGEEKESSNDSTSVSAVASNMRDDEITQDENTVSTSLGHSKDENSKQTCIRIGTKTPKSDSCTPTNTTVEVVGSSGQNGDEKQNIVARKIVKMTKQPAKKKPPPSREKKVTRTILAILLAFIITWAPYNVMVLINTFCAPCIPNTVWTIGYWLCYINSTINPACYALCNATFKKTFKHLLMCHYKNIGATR

[8] = molecular target: Delta-type opioid receptor (Homo sapiens, UniProt P41143)
[9] = molecular target: 5-hydroxytryptamine receptor 2B (Homo sapiens, UniProt P41595); type: functional, cell-based
Histamine H2 receptor = Histamine H2 receptor (Homo sapiens, UniProt P25021); type: functional, cell-based
[10] = molecular target: T5, Muscarinic acetylcholine receptor M2; type: functional, cell-based; remark: listed apart in the source
[11] = molecular target: cGMP-inhibited 3',5'-cyclic phosphodiesterase 3A (Homo sapiens, UniProt Q14432); type: functional
D(1A) dopamine receptor = D(1A) dopamine receptor (Homo sapiens, UniProt P21728); type: functional, cell-based
Further: assay procedure not described here.

Sequence of cGMP-inhibited 3',5'-cyclic phosphodiesterase 3A (Q14432 whole entry): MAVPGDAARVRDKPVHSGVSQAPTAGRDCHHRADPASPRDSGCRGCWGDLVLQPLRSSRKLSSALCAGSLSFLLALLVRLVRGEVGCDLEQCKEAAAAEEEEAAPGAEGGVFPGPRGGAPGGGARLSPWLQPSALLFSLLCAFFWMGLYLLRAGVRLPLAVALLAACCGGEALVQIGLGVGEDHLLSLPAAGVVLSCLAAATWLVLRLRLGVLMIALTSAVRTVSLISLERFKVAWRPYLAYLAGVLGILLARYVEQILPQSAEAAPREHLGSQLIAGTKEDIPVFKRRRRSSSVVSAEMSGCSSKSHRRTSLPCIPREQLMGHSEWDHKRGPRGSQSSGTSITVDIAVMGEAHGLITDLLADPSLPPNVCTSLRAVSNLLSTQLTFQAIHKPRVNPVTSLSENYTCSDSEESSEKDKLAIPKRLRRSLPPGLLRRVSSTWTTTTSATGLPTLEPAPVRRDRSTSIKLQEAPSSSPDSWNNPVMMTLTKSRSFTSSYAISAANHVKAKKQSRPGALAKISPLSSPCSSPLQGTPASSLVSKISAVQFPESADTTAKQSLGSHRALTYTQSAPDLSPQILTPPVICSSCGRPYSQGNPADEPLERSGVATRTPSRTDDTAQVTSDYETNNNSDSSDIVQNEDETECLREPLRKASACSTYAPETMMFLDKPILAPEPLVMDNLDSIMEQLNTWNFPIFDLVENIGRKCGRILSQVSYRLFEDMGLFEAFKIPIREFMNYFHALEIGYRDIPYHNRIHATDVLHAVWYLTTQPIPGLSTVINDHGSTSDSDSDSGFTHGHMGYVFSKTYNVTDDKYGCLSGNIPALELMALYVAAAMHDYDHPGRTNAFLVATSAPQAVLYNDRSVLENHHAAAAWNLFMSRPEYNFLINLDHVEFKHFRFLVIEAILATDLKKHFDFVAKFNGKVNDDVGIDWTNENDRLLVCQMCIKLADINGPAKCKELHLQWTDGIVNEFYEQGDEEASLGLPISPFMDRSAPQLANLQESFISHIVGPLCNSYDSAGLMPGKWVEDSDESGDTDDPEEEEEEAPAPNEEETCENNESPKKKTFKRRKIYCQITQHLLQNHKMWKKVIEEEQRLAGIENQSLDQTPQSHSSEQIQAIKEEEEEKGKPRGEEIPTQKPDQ
Sequence of D(1A) dopamine receptor (P21728 whole entry): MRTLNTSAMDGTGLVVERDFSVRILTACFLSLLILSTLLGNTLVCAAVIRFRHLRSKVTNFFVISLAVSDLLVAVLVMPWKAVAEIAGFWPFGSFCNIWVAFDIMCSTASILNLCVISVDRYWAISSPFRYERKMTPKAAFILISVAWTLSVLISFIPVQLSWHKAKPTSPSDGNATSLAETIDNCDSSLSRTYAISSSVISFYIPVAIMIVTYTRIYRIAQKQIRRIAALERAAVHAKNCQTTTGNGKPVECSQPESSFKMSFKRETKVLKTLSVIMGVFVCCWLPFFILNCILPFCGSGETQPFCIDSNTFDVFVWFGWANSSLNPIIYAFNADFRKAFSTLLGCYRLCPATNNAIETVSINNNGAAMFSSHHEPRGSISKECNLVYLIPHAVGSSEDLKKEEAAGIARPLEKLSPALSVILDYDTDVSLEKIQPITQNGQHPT
Sequence of 5-hydroxytryptamine receptor 2B (P41595 whole entry): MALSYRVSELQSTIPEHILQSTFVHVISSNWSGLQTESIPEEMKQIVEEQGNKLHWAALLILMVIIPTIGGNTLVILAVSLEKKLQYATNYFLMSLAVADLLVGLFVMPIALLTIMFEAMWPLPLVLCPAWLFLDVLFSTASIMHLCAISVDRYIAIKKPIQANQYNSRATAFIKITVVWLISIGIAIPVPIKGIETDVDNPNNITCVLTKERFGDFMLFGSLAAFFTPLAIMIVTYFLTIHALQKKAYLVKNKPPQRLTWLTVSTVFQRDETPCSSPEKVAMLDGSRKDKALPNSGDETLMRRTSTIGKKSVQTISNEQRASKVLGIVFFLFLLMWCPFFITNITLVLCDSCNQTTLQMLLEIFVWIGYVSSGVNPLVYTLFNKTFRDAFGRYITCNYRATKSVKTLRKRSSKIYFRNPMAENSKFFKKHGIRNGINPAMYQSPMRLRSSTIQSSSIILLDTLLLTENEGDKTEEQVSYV
Sequence of Sodium-dependent dopamine transporter (Q01959 whole entry): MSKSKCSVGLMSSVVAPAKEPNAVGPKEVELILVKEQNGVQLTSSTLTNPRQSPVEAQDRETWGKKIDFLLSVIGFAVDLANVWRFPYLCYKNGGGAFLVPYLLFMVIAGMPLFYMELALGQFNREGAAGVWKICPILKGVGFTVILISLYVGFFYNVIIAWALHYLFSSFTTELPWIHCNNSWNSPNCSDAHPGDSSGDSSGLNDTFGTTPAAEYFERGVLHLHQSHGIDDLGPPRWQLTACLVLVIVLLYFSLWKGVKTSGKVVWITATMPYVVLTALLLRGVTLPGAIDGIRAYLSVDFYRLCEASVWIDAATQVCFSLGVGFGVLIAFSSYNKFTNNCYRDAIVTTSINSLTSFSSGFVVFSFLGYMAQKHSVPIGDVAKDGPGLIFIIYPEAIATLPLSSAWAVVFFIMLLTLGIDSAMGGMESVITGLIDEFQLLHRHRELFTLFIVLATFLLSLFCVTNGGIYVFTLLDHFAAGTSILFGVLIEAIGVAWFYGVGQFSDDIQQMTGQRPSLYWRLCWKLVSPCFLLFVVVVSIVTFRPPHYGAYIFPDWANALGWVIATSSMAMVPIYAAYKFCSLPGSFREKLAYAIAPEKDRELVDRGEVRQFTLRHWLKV
T1 sequence (P62813 whole entry): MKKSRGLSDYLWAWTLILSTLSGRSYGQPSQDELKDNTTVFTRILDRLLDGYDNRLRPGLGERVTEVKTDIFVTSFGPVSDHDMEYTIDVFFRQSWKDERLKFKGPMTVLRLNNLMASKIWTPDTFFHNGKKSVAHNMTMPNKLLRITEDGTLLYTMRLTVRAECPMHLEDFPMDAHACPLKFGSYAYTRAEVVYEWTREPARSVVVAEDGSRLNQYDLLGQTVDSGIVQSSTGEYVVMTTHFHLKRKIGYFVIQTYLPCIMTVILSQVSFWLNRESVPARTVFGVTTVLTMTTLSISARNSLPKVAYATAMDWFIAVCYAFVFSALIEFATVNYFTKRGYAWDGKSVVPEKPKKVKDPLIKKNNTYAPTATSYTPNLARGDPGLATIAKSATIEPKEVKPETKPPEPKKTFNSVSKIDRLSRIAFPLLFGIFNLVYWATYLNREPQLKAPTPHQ
Sequence of Delta-type opioid receptor (P41143 whole entry): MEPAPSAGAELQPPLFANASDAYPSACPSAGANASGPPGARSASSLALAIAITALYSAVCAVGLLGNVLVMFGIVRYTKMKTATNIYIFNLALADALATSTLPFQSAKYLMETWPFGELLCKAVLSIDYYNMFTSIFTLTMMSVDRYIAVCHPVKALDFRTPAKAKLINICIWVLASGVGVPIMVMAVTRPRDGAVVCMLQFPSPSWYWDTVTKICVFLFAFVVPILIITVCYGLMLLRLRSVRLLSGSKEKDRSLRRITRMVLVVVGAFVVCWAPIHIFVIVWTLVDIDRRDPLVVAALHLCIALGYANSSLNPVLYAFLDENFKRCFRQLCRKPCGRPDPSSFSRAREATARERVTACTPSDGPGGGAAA
Sequence of Histamine H2 receptor (P25021 whole entry): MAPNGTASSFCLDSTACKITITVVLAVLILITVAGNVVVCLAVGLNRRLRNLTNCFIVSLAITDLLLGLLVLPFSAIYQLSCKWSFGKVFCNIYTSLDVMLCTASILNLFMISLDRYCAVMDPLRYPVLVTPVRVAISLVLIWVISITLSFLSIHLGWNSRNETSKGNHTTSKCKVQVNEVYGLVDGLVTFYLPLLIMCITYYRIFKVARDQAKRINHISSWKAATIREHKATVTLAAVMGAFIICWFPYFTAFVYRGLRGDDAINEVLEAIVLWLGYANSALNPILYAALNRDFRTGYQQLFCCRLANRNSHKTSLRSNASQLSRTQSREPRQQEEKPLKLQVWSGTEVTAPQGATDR

Structure (SMILES)	AC50 [1] [µM]	AC50 [2] [µM]	AC50 [3] [µM]	AC50 [4] [µM]	AC50 [5] [µM]	AC50 [6] [µM]	AC50 [7] [µM]	AC50 [8] [µM]	AC50 [9] [µM]	AC50 (Histamine H2 receptor) [µM]	AC50 [10] [µM]	AC50 [11] [µM]	AC50 (D(1A) dopamine receptor) [µM]
Cc1c(O)cccc1C(=O)N[C@@H](CSc1ccccc1)[C@H](O)CN1C[C@H]2CCCC[C@H]2C[C@H]1C(=O)NC(C)(C)C	> 30												
NS(=O)(=O)c1cc(-c2nnn[nH]2)c(NCc2cccs2)cc1Cl [AZOSEMIDE]		> 30	> 30	> 30	> 30	> 30	> 30	> 30	> 30	> 30	> 30	19	> 30
C[N+](C)(C)CC(=O)O [BETAINE]		> 30	> 30	> 30	> 30	> 30	> 30	> 30	> 30	> 30	> 30	> 30	> 30
CCCC(=O)N1CCCN(c2nc(N)c3cc(OC)c(OC)cc3n2)CC1 [BUNAZOSIN]		> 30	> 30	> 30	> 30	> 30	> 30	> 30	> 30	> 30	> 30	> 30	> 30
C[N+](C)(C)CCOC(N)=O [CARBAMOYLCHOLINE]		> 10	> 30	> 10	5.95	> 30		> 30	> 30	> 30		> 30	> 30
N[C@@H](CSCC(=O)O)C(=O)O [CARBOCYSTEINE]		> 30	> 30	> 30	> 30	> 30	> 30	> 30	> 30	> 30	> 30	> 30	> 30
CC(C)(N)Cc1ccc(Cl)cc1 [CHLORPHENTERMINE]		7.59	> 30	> 10	> 10	> 10	> 10	> 30	> 10	> 10	> 10	> 30	> 10
CN(C)[C@@H]1C(O)=C(C(N)=O)C(=O)[C@@]2(O)C(O)=C3C(=O)c4c(O)ccc(Cl)c4[C@@H](O)[C@H]3C[C@@H]12 [DEMECLOCYCLINE]		> 10		> 10	> 10	> 10	> 10	> 30	> 10	> 10	> 10	> 30	> 10
NS(=O)(=O)c1cc(Cl)c(Cl)c(S(N)(=O)=O)c1 [DICHLORPHENAMIDE]		> 10	> 30	> 10	> 10	> 10	> 10	> 30	> 10	> 10	> 10	> 30	> 10
C=C1C[C@@H]2[C@H](CC[C@]3(C)C(=O)CC[C@@H]23)[C@@]2(C)C=CC(=O)C=C12 [EXEMESTANE]		> 30	> 30	> 10	> 10	> 10	> 10	> 30	> 10	> 10	> 10	> 30	> 10
CC(C(O)c1ccc(O)cc1)N1CCC(Cc2ccccc2)CC1 (stereo unspecified) [IFENPRODIL]		1.2	> 30	> 30	1.3	> 30	> 30	> 30	> 30	> 30	> 30	> 30	> 30
CC(=O)N(CC(O)CO)c1c(I)c(C(=O)NCC(O)CO)c(I)c(C(=O)NCC(O)CO)c1I (stereo unspecified) [IOHEXOL]		> 30	> 30	> 10	> 10	> 10	> 10	> 30	> 10	> 10	> 10	> 30	> 10
CN(CCCN1c2ccccc2CCc2ccccc21)CC(=O)c1ccc(Cl)cc1 [LOFEPRAMINE]		21	> 30	> 30	> 30	> 30	> 30	30	> 30	> 30	> 30	> 30	> 30
CN(C/C=C/c1ccccc1)Cc1cccc2ccccc12 [NAFTIFINE]		17.3	> 30	> 10	> 10	> 10	> 10	> 30	> 10	> 10	> 10	> 30	> 10
CC(C)NCC1CCc2cc(CO)c([N+](=O)[O-])cc2N1 (stereo unspecified) [OXAMNIQUINE]		> 30	> 30	> 10	> 30	> 10	> 10	> 30	> 10	> 10	> 10	> 30	> 10
CN(C)CCCN1c2ccccc2Sc2ccccc21 [PROMAZINE]		> 10	> 30	> 10	> 10	> 10	> 10	> 10	> 10	> 10	> 10	15	> 10
O=P(O)(O)C(O)(Cc1cccnc1)P(=O)(O)O [RISEDRONIC ACID]		> 30	> 30	> 30	> 30	> 30	> 30	> 30	> 30	> 10	> 30	7.14	> 30
CC(=O)N[C@H]1[C@H]([C@H](O)[C@H](O)CO)OC(C(=O)O)=C[C@@H]1N=C(N)N [ZANAMIVIR]		> 30		> 10	> 30	> 10	> 10	> 30	> 30	> 30	> 10	> 30	> 30
